# Experimental data: patent US20090030066A1, “SMALL MOLECULES FOR THE PROTECTION OF PANCREATIC CELLS” (priority 2007, published 2009)
# Columns and labels:
# [1] = tested on: AR42J rat pancreatic tumor cell line; assay: MTT proliferation of AR42J pancreatic tumor cells; type: cell-based; conditions: 96 h
# Description: In the Examples below, an MTT assay was used to determine the relative number of viable cells after treatments. This calorimetric assay is based on the ability of living cells, but not dead cells, to reduce 3-(4,5-dimethyl thiazol-2-yl)-2,5-diphenyltetrazolium bromide. [Carmichael, J, De Graff, W. G., Gazdar, A. F., Minna, J. D. and Mitchell, J. B. (1987) Evaluation of tetrazolium-based semiautomated calorimetric assay: Assessment of chemosensitivity testing. Cancer Res. 47, 936-942], which is hereby incorporated by reference. For this assay, cells were plated in 96-well plates, and the MTT assay was performed as described in the above article both in untreated and treated cell cultures. The MTT assay also was performed at the time when the treatment was started to allow for assessment of the proliferation and survival rates in the control and treated cell cultures. In the MTT assay, higher values mean proportionally higher numbers of viable cells.
# The AR42J rat pancreatic tumor cell line, purchased from ATTC (catalog number: CRL-1492), was propagated in modified Ham's medium containing 20% fetal bovine serum. These cells, derived from a transplantable tumor of the exocrine pancreas, contain significant amounts of amylase and other exocrine enzymes and they produce tumors in athymic mice.
# For the experiment, cells were split in 96-well plates at 15,000 cells per well. After 24 hours, the medium was changed for fresh medium (0 hour) and various concentrations of CCompound1 and CCompound3 were added and incubations continued for 96 hours. The MTT assay was used to determine the relative number of viable cells. From the data shown in TABLE 13, in the 2-25 μM concentration range CC compounds had only inhibitory effects on the proliferation of pancreatic cancer cells.
# STZ-treated mice [2] = assay: STZ-treated mice, second experiment: body weight to day 80 and survival; type: in vivo; conditions: for survivors: 80th day
# Description: In a second similar experiment performed with 6 mice in each group, the changes in body weight were followed for up to 80 days (when the last STZ-treated mouse died), and survival was followed for up to 100 days.
# For the body weight (on the 80th day) and survival the following values were obtained: Untreated (6 survivors), 37.7 g; STZ-treated (one last survivor died on day 80, others survived for 22, 25, 27, 60, 75 days), 26.0 g; CCompound1-treated (6 survivors), 36.0 g; STZ+CCompound1 treated (6 survivors), 33.4 g; STZ+CCompound3-treated (5 survivors; one mouse died on day 78), 32.5 g. At the start of the experiment (day 0), the average body weight ranged from 28.6 to 29.8 g. Accordingly, by day 80, STZ-treated animals that were also treated with CCompound1 and CCompound3 gained about 50% of the weight gained by the untreated animals.
# STZ-treated mice [3] = assay: STZ-treated mice, third experiment (fasted): blood glucose, body weight, survival; type: in vivo
# Description: The effects of CCompound1 on blood glucose level and body weight as well as survival were also examined in a third experiment. Animals weighing between 24.6-25.3 g were selected for this experiment with each group consisting of 6 mice. One group of mice (group 1) received no treatment over the entire experiment, while in the other two groups (groups 2-3), animals were injected (i.p.) with 210 mg/kg of STZ on day 0. Animals in group 3 were also injected (i.p.) with 4.5 mg per kg of CCompound1 once daily for 10 days starting 24 h prior to STZ treatment. CCompound1 and STZ were dissolved as previously indicated.
# In this experiment the animals were fasted for 13-14 hours (fasted overnight from 6 p.m. to 7-8 a.m. and returned to normal diet from 8 a.m. to 6 p.m) prior to taking the blood samples.
# [4] = tested on: human mesenchymal stem cells; assay: Survival/attachment of human mesenchymal stem cells, compound present during plating; type: cell-based; conditions: 5-10 μM, 10% or 2% serum, 24 h
# Description: Bone marrow aspirates were taken from normal adult donors signed after informed consent according to a protocol approved by the appropriate Ethics Committee. For the preparation of bone marrow mesenchymal stem cells, essentially a widely used technique was used as described earlier by others [Pittenger, M. F., Mackay, A. M., Beck, S. C., Jaiswal, R. K., Douglas, R., Mosca, J. D., Moorman, M. A., Simonetti, D. W., Craig, S, and Marshak, D. R., Multilineage potential of adult human mesenchymal stem cells (1999) Science 284, 143-147]. Briefly, nucleated cells were isolated with a pre-prepared commercial density gradient (Lymphoprep, Nycomed, Pharma, Oslo, Norway) and resuspended in Dulbecco's modified Eagle's medium (DMEM) (GIBCO, Grand Island, N.Y.) supplemented with 10% fetal calf serum (FCS), 50 U/ml of penicillin, and 50 μg/ml of streptomycin (GIBCO). All nucleated cells were plated in 25-cm^2 flasks (BD Falcon, Bedford, Mass.) at 37° C. in humidified atmosphere containing 5% CO2. […] When cells grew to about 80% confluence, they were suspended and harvested by incubating with a ready-made solution containing 0.25% trypsin and 1 mM EDTA (Sigma-Aldrich, St. Louis, Mo.) for 5 minutes at 37° C.; this cell suspension is designated as passage 1. […]
# The total numbers of nucleated and viable cells were determined with a hemocytometer, using Turck's solution and trypan blue stain, respectively. […]
# [5] = STZ + compound, 6 mice per group
compound,measurement,setting,value
"Cc1c(OCC(O)C[N+](C)(C)C)cc2c(=O)c3ccccc3sc2c1C.[Cl-] (stereo not drawn) [CCcompound1, [3-(3,4-Dimethyl-9-oxo-9H-thioxanthen-2-yloxy)-2-hydroxypropyl]trimethyl-ammonium chloride]","A540 (MTT, relative number of viable cells)",[1]; 2 μM,1.092 ± 0.083
same,"A540 (MTT, relative number of viable cells)",[1]; 5 μM,0.954 ± 0.080
same,"A540 (MTT, relative number of viable cells)",[1]; 10 μM,0.882 ± 0.062
same,"A540 (MTT, relative number of viable cells)",[1]; 25 μM,0.781 ± 0.090
same,weight gained by day 80 relative to the weight gained by the untreated animals,STZ-treated mice [2]; STZ + compound,about 50%
same,body weight on the 80th day,STZ-treated mice [2]; [5],33.4 g
same,survivors,STZ-treated mice [2]; [5],6
same,body weight on the 80th day,"STZ-treated mice [2]; compound alone, no STZ, 6 mice",36.0 g
same,survivors,"STZ-treated mice [2]; compound alone, no STZ, 6 mice per group",6
same,Blood glucose,"STZ-treated mice [3]; STZ 210 mg/kg i.p. day 0 + compound 4.5 mg/kg i.p. daily for 10 days from day −1, fasted, day −1",2.1 ± 0.3 mM
same,Blood glucose,"STZ-treated mice [3]; STZ + compound 4.5 mg/kg i.p. daily for 10 days (stopped day 9), fasted, day 14",11.8 ± 1.0 mM
same,Blood glucose,"STZ-treated mice [3]; STZ + compound 4.5 mg/kg i.p. daily for 10 days (stopped day 9), fasted, day 21",12.5 ± 0.8 mM
same,Body weight,"STZ-treated mice [3]; STZ + compound 4.5 mg/kg i.p. daily for 10 days, day 0",25.1 ± 0.5 g
same,Body weight,"STZ-treated mice [3]; STZ + compound 4.5 mg/kg i.p. daily for 10 days, day 3",24.3 ± 1.0 g
same,Body weight,"STZ-treated mice [3]; STZ + compound 4.5 mg/kg i.p. daily for 10 days, day 5",24.2 ± 0.9 g
same,Body weight,"STZ-treated mice [3]; STZ + compound 4.5 mg/kg i.p. daily for 10 days, day 7",24.1 ± 0.7 g
same,Body weight,"STZ-treated mice [3]; STZ + compound 4.5 mg/kg i.p. daily for 10 days, day 9",24.3 ± 0.8 g
same,Body weight,"STZ-treated mice [3]; STZ + compound 4.5 mg/kg i.p. daily for 10 days, day 11",24.3 ± 0.9 g
same,Body weight,"STZ-treated mice [3]; STZ + compound 4.5 mg/kg i.p. daily for 10 days, day 13",24.5 ± 1.1 g
same,Body weight,"STZ-treated mice [3]; STZ + compound 4.5 mg/kg i.p. daily for 10 days, day 15",23.9 ± 0.4 g
same,Body weight,"STZ-treated mice [3]; STZ + compound 4.5 mg/kg i.p. daily for 10 days, day 17",24.5 ± 1.1 g
same,Body weight,"STZ-treated mice [3]; STZ + compound 4.5 mg/kg i.p. daily for 10 days, day 21",24.4 ± 1.0 g
same,Blood glucose,"STZ-treated mice [3]; STZ + compound 4.5 mg/kg i.p. daily for 10 days, fasted, day 0",2.1 ± 0.2 mM
same,Blood glucose,"STZ-treated mice [3]; STZ + compound 4.5 mg/kg i.p. daily for 10 days, fasted, day 1",6.7 ± 0.7 mM
same,Blood glucose,"STZ-treated mice [3]; STZ + compound 4.5 mg/kg i.p. daily for 10 days, fasted, day 2",7.1 ± 0.5 mM
same,Blood glucose,"STZ-treated mice [3]; STZ + compound 4.5 mg/kg i.p. daily for 10 days, fasted, day 3",7.2 ± 0.5 mM
same,Blood glucose,"STZ-treated mice [3]; STZ + compound 4.5 mg/kg i.p. daily for 10 days, fasted, day 4",7.6 ± 0.4 mM
same,Blood glucose,"STZ-treated mice [3]; STZ + compound 4.5 mg/kg i.p. daily for 10 days, fasted, day 5",8.2 ± 0.4 mM
same,Blood glucose,"STZ-treated mice [3]; STZ + compound 4.5 mg/kg i.p. daily for 10 days, fasted, day 6",8.6 ± 0.3 mM
same,Blood glucose,"STZ-treated mice [3]; STZ + compound 4.5 mg/kg i.p. daily for 10 days, fasted, day 7",9.3 ± 0.5 mM
same,Blood glucose,"STZ-treated mice [3]; STZ + compound 4.5 mg/kg i.p. daily for 10 days, fasted, day 8",10.4 ± 0.7 mM
same,Blood glucose,"STZ-treated mice [3]; STZ + compound 4.5 mg/kg i.p. daily for 10 days, fasted, day 9",11.0 ± 1.1 mM
same,mice alive on day 53,STZ-treated mice [3]; [5],6
same,body weight lost,"STZ-treated mice [3]; co-treated with compound and STZ, day 0 to day 21",0.7 to 1.2 g
same,reduction of the effects of STZ on blood glucose level,STZ-treated mice [3]; days 3 and 4,more than 50%
same,effect on number of attached cells,[4],enhanced the number of attached cells
